{"source": "ChEMBL document CHEMBL1143492", "about": "“Design, synthesis, and bioavailability evaluation of coumarin-based prodrug of meptazinol” (Bioorg Med Chem Lett, 2005)", "assay": "Area under curve was determined after intravenous administration (29.7 umol/kg) in rat", "format": "ADME", "conditions": "in vivo"}
{"compound": "CCC1(c2cccc(O)c2)CCCCN(C)C1", "note": "(stereo unspecified) [MEPTAZINOL]", "values": [{"measurement": "AUC", "value": 1990, "unit": "ng·h/mL"}]}
